# Data: a melting point compilation (Tetko et al.; mined from patent text by program, amines drawn as free bases though some values may be those of a salt)
row,SMILES,melting point [°C]
1,COCCOC1c2ccn3c(C)c(C)nc3c2NC(c2ccccc2)C1OC(=O)CCCCO[N+](=O)[O-] (centres undefined),87.1
2,CCCCCCC(C)(O)CCc1ccc(O)c(O)c1 (centres undefined),81 to 83
3,CCCCC(=N)NC(=O)Nc1ccccc1[N+](=O)[O-],130 to 132
4,COc1cc(Nc2c(C#N)cnc3cc(F)c(OCCN4CCOCC4)cc23)c(Cl)cc1Cl,166 to 168
5,CCOC(=O)C1=C(C)Nc2nc(N3CCCCC3)nc(N3CCCCC3)c2C1c1cccc([N+](=O)[O-])c1 (centres undefined),169
6,O=C(Nc1c(Cl)cncc1Cl)c1cc(OC2CCCC2)c(OC(F)F)cn1,131 to 132
7,Cc1ccc(N(C)S(=O)(=O)c2cccs2)c2[nH]c(-c3ncc(CO)s3)cc12,184 to 185
8,O=C(Nc1ccccn1)c1cccc(-c2cccc(OCCc3ccc(Cl)cc3Cl)n2)c1,113 to 115
9,CN(C(=O)C(F)(F)F)C1(C)CN(c2c(F)cc3c(=O)c(C(=O)O)cn(C4CC4)c3c2F)C1,291 to 294
10,NNc1cc2c(nn1)CCN(C(=O)CC(c1ccccc1)c1ccccc1)C2,175 to 178
11,CCCn1c(COCC)nc2c(N)nc3ccc(OCCNC(=O)C4CCCO4)cc3c21 (centres undefined),202 to 204
12,Cc1ccc2ccccc2c1COc1ccc(C(=O)NC[C@@H](C(=O)NO)N2CCN(S(C)(=O)=O)CC2)cc1,155
13,CC(C)CN1C(=O)C2CC2(c2ccc(N)cc2)C1=O (centres undefined),100 to 101
14,Cc1nc[nH]c1CSCCNC(=N)NC#N,125 to 127
15,CC12CC(=O)NN=C1c1ccc(C#N)cc1C2 (centres undefined),254
16,Cc1c(NC(=O)C(C)(C)C)cccc1C(F)(F)F,122
17,CSc1ccc(-c2coc3ccc(-c4nnc(N)o4)cc23)cc1,255 to 256
18,CN(C)S(=O)(=O)c1ccc(Oc2ccc([N+](=O)[O-])cc2)cc1,116 to 118
19,Nc1ccc(-c2ncccn2)cc1,236 to 238
20,CC(C)(C)C1=C(C(=O)OCc2ccc([N+](=O)[O-])cc2)N2C(=O)C(C)(C)C2O1 (centres undefined),119 to 120
21,Cc1ccccc1-c1c(C(=O)NCc2cc(C(F)(F)F)cc(C(F)(F)F)c2)n(C)c(=O)c2ccccc12,168 to 170
22,CN(C)C(=O)N1Cc2c(-c3noc(C4CC4)n3)ncn2-c2cccc(F)c21,194 to 195
23,CC(C)(C)OC(=O)CN1C(=O)C(NC(=O)OCc2ccccc2)C1CCC(=O)O (centres undefined),118 to 120
24,CC1(C)COc2ccc(F)cc2C(O)(c2ccccn2)C1 (centres undefined),110
25,CC(C)c1cccc(OCc2cc(Br)ccc2C(=O)O)c1,103 to 122

row,SMILES,melting point [°C]
1,Cc1cccc2c(=O)cc(N3CCOCC3)oc12,148
2,N=C(N)Nc1ccc(CCCC(=O)NC(COCc2ccccc2)C(=O)NCCCC(CCCNC(=O)OCc2ccccc2)NC(=O)OCc2ccccc2)cc1 (centres undefined),157 to 160
3,COc1ccc2c(c1)[C@](C)(NC(=O)c1cc3ccccc3[nH]1)C(=O)N2c1ccc(F)cc1,287 to 288
4,COc1ccc(F)cc1N1CCN([C@H]2CC[C@@H](c3c[nH]c4ccc(F)cc43)CC2)CC1,152 to 153
5,COC(=O)c1nnc2n1-c1ccc(Cl)cc1C(c1ccccc1)=NC2,216 to 217
6,O=C1NC(=O)C(F)(c2ccccc2)CO1 (centres undefined),115 to 117
7,CCOC(=O)Cc1ccc(NC(=O)C(COS(C)(=O)=O)NS(=O)(=O)c2ccc(Cl)cc2)cc1 (racemic),142 to 143
8,CCN(CC)C(=O)c1nc(-c2ccc(Cl)cc2Cl)[nH]c1C(F)(F)F,186 to 190
9,CC(O)c1cccc2cccc(O)c12 (centres undefined),89 to 90
10,CCCC(=O)NN=C(C)c1sc(C)nc1C,124
11,O=C(Nc1cnccc1C(=O)O)OCc1cc2cc(-c3ccccc3)ccc2o1,236 to 239
12,CN1CCN(c2ccc(N)c(C(=O)O)c2)CC1,212
13,CC1Cc2cc3c(cc2C(c2ccc([N+](=O)[O-])cc2)=NN1C(=O)CCCC(=O)O)OCO3 (centres undefined),148 to 150
14,CCN1C=C(C(=O)c2c(C)nn3ccccc23)CCC1,104 to 105
15,COc1cnnc(Oc2ccnc(OC(F)F)c2)c1,119 to 120
16,CSC(=S)NN=Cc1c[nH]c(C)n1,274 to 279
17,N#Cc1c(F)cc(OCCOc2ccc3ccccc3c2)cc1F,148 to 149
18,Cc1nc(N2CCN(CCC3CC3)C2=O)sc1-c1cc[nH]n1,147 to 149
19,Cc1cc2c(c(N3CC[C@H](N(C)C)C3)c1-c1ccccc1)OC(C#N)(C(=O)N1CCCCC1)N2 (some centres undefined),170 to 173
20,COC(=O)CCC/C=C/c1ccc2cc(C)ccc2c1,50
21,COc1cc(OC)c2c(=O)[nH]c(-c3ccc(OCCO)c(-c4ccccc4)n3)nc2c1,240 to 242
22,O=C(O)c1ccc2c(c1)S(=O)(=O)c1ccccc1O2,286
23,O=C(NCCO[N+](=O)[O-])c1csc(C(=O)NCCO[N+](=O)[O-])n1,136 to 138
24,CC(=O)N1CC(=O)c2ccccc21,138
25,O=C(O)C1=Cc2c(ccc(Cl)c2-c2ccsc2)OC1C(F)(F)F (centres undefined),211 to 214

row,SMILES,melting point [°C]
1,CNC(=O)N(O)C(C)c1cc(C(C)(C)C)c(O)c(C(C)(C)C)c1 (centres undefined),159 to 160
2,NOCCc1cn(C(c2ccccc2)(c2ccccc2)c2ccccc2)cn1,93
3,COc1ccc(OC)c2c1COC2=O,168 to 170
4,Cc1nc2ccc(O)cc2c(=O)n1C1CCC(=O)NC1=O (centres undefined),315 to 317
5,CCN(CC)c1ccc2cc([N+](=O)[O-])c(=O)oc2c1,193 to 195
6,O=C(O)c1ccc(C=CC(=O)c2ccccc2)cc1,222 to 224
7,COC(=O)c1nn(C)c2ccccc12,78 to 79
8,CC1CN(S(C)(=O)=O)Cc2nc3c(N)nc4ccccc4c3n21 (centres undefined),258 to 261
9,CN1C(=O)C2C3C=CC(C3)C2(c2ccc([N+](=O)[O-])cc2)C1=O (centres undefined),163 to 167
10,COC(=O)c1ccc(C2=NC(C)(C)Cc3cc(OC)c4c(c32)CC(C)(C)O4)cc1N,161 to 162
11,CC(=O)Nc1ccc(OCCCN2C(=O)c3ccccc3C2=O)cc1,154 to 156
12,CCCc1c(OCCCOc2ccc(C(=O)C(=O)O)cc2)ccc(C(=O)O)c1O,182 to 185
13,COc1ccc(N2Cc3ccccc3P2(=O)C(C)C)cc1 (centres undefined),135 to 137
14,COc1ccc(F)cc1C(C)(C)CC(O)(Cc1ccc(C(=O)O)cc1)C(F)(F)F (centres undefined),174 to 177
15,Nc1cc(/C=C/c2nc3ccccc3s2)ccc1O,192 to 193
16,CCC(Cc1ccc(OCCN2CCOCC2)cc1)(C(=O)NO)S(=O)(=O)c1ccc(OC)cc1 (centres undefined),51
17,CCc1oc2ccccc2c1C(=O)c1ccc(OCC(=O)OC)cc1,72 to 74
18,CCOC(=O)CCCCn1c(=O)[nH]c2ccc(OCOCCOC)cc2c1=O,105 to 107
19,O=C1OC(=O)c2cc3cc(O)ccc3cc21,266
20,CC(C)C(C)(C)C(=O)C(Cc1ccc(Cl)cc1)n1cncn1 (centres undefined),91 to 94
21,c1cnc(Sc2cccc3cccnc23)nc1,165 to 168
22,O=C(Nc1ccc(-n2nc(C(F)(F)F)cc2C(F)(F)F)cc1)c1cccc(F)c1F,147 to 149
23,O=CNc1nc(C(=NOCC(=O)OC(c2ccccc2)c2ccccc2)C(=O)O)cs1,143 to 151
24,CCCCS(=O)(=O)Nc1cccc(Oc2cccc3cccnc23)c1,107 to 108
25,Cc1ccccc1OCC1NCCS1 (centres undefined),66 to 68

row,SMILES,melting point [°C]
1,CCOC(=O)c1nn(-c2ccc(C=O)cc2)nc1-c1ccccc1,96 to 97
2,CCCCOC(=O)Cc1cc2c(s1)CCN(C(=O)[C@H](Cc1ccc(O)cc1)NC(=O)c1ccc(C(=N)N)cc1)C2,176 to 178
3,COc1ccc(CNC(=O)C(=O)NCCc2ccccn2)c(C)c1,133 to 134
4,O=C1Nc2c(ccc3c2CCCC3)SC1CCCBr (centres undefined),122 to 123
5,COCCNc1ccc2ncnc(Nc3ccc(F)c(Cl)c3)c2c1,152 to 154
6,N#CCC(=O)c1nn(-c2ccccc2)c2c1Cc1ccccc1-2,189 to 190
7,CC(C)(C)OC(=O)c1sc(Oc2ccc3c(c2)OCO3)c2c1CCc1cnoc1-2,165 to 166
8,CCC(NC(=O)C1CC1)c1ccc(Cl)c2nc3n(c12)CCCN3c1ccc(Cl)cc1Cl (centres undefined),251 to 253
9,CCOC(=O)C(CC)(Cc1ccc(OCCN2CCCCC2)cc1)S(=O)(=O)c1ccc(OC)cc1 (centres undefined),75
10,CCOCc1nc2c(N)nc3ccccc3c2n1CCCNC(=O)OC(C)(C)C,124 to 126
11,CC(C)(C)OC(=O)N[C@@H](Cc1ccc(Cl)cc1)C(=O)NC1CCC(Nc2cccc3c2C(=O)c2ccccc2C3=O)CC1 (some centres undefined),190
12,CCCc1c(O)ccc2oc(C(=O)OCC)cc12,99 to 101
13,Cc1cc(O)c(Cc2ccc(C(C)C)cc2)c(C)c1N(Cc1ccccc1)C(=O)CC(C)(C)C,167 to 168
14,COc1ccc(N(C(=O)c2ccc(OC)c(F)c2)c2ccc(F)cc2)cc1,54 to 56
15,Cc1cc(-c2ncn3c(C(F)(F)F)cc(-c4ccc(Cl)cc4)nc23)ccn1,232
16,CC(=NNc1ccc(C2=NNC(=O)CO2)cc1)c1ccncc1,195
17,COc1ccc(NC(=O)Nc2ccc(Cl)c(Cl)c2)cc1N,202 to 204
18,Cc1cc(-c2nnc3c4ccccc4c(OCc4cnn(C)c4)nn23)no1,212 to 213
19,CCCN1CCc2[nH]c3ccc4scc(-c5ccccc5)c4c3c2C1,187 to 188
20,CCCc1nc2c(N)nc3c(c2n1CCCC(=O)N1CCOCC1)CCCC3,181 to 183
21,Cc1ccc(S(=O)(=O)Nc2ccccc2C(=O)C2CC2)cc1,92 to 100
22,COC(=O)C(C)Oc1ccc(Oc2cnc3cc(Cl)c(Cl)cc3n2)cc1 (centres undefined),100 to 105
23,COc1ccc(C=NNC(=O)COc2ccc(C3=NNC(=O)CC3)cc2Cl)cc1,220 to 222
24,Nc1ncccc1-c1nc2ccc(-c3ccc(CO)cc3)nc2n1-c1ccc(CNC(=O)c2ccccc2)cc1,118 to 120
